For the assay, the system named is BDF1 mice, intracerebral L1210 leukemia, survival T/C. The experiment in a line: NCI In Vivo Anticancer Drug Screen. Data for tumor model L1210 Leukemia (intracerebral) in B6D2F1 (BDF1) mice. The following applies: higher = longer survival. The method in brief: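 Survival measured in treated and vehicle-control tumour-bearing mice; value = T/C.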
Where [1] appears, read: endpoint: mean survival time, dose: 2.5 mg/kg/injection, schedule: Q01DX Z (ip), vehicle: saline.

Several values for one entry are separate records, joined by “and”; a condition that tells them apart may be missing. Equal values may be shown once. Toxic doses and inconclusive results are not listed.

`O=NN(CCF)C(=O)NCCF`: the T/C is, setting by setting: (endpoint: mean survival time, dose: 3.5 mg/kg/injection, schedule: Q01DX001 (ip), vehicle: saline) 160 % of control; (endpoint: mean survival time, dose: 5.0 mg/kg/injection, schedule: Q01DX001 (ip), vehicle: saline) 208 % of control; (endpoint: mean survival time, dose: 7.0 mg/kg/injection, schedule: Q01DX001 (ip), vehicle: saline) 254 % of control; (endpoint: mean survival time, dose: 8.0 mg/kg/injection, schedule: Q01DX001 (ip), vehicle: saline) 284 % of control; (endpoint: mean survival time, dose: 14.0 mg/kg/injection, schedule: Q01DX001 (ip), vehicle: saline) 303 % of control.

On to `O=NN(CCCl)C(=O)Nc1ccc(Cn2ccc(=O)[nH]c2=O)cc1`, for which the T/C reads like this: (endpoint: mean survival time, dose: 18.0 mg/kg/injection, schedule: Q01DX001 (ip), vehicle: carboxymethylcellulose (CMC)) 109 % of control; (endpoint: mean survival time, dose: 26.0 mg/kg/injection, schedule: Q01DX001 (ip), vehicle: carboxymethylcellulose (CMC)) 110 % of control; (endpoint: mean survival time, dose: 40.0 mg/kg/injection, schedule: Q01DX001 (ip), vehicle: carboxymethylcellulose (CMC)) 109 % of control; (endpoint: mean survival time, dose: 60.0 mg/kg/injection, schedule: Q01DX001 (ip), vehicle: carboxymethylcellulose (CMC)) 122 % of control; (endpoint: mean survival time, dose: 90.0 mg/kg/injection, schedule: Q01DX001 (ip), vehicle: carboxymethylcellulose (CMC)) 119 % of control.

Regarding `N#CCCNC(=O)N(CCC#N)N=O`, the T/C by setting is: (endpoint: mean survival time, dose: 167.0 mg/kg/injection, schedule: Q01DX001 (ip), vehicle: carboxymethylcellulose (CMC)) 102 % of control; (endpoint: mean survival time, dose: 250.0 mg/kg/injection, schedule: Q01DX001 (ip), vehicle: carboxymethylcellulose (CMC)) 109 % of control.

As to `C=CC(CN1CC1)OC(C)=O` (centres undefined), the T/C runs as follows: under setting [1], 119 % of control; (endpoint: mean survival time, dose: 11.0 mg/kg/injection, schedule: Q01DX001 (ip), vehicle: saline) 113 % of control and 117 % of control; (endpoint: mean survival time, dose: 17.0 mg/kg/injection, schedule: Q01DX001 (ip), vehicle: saline) 117 % of control; (endpoint: mean survival time, dose: 25.0 mg/kg/injection, schedule: Q01DX001 (ip), vehicle: saline) 119 % of control; (endpoint: mean survival time, dose: 25.0 mg/kg/injection, schedule: Q01DX Z (ip), vehicle: saline) 120 % of control; (endpoint: mean survival time, dose: 30.0 mg/kg/injection, schedule: Q01DX Z (ip), vehicle: saline) 105 % of control.

As for `CCCCCCCCCCCCCCCC(=O)OCC1OC(n2ccc(N)nc2=O)C(O)C1O` (centres undefined), the T/C (endpoint: mean survival time, dose: 5.0 mg/kg/injection, schedule: Q01DX005 (ip), vehicle: other) is 111 % of control (2×) and 117 % of control; the T/C (endpoint: mean survival time, dose: 20.0 mg/kg/injection, schedule: Q01DX005 (ip), vehicle: other) was 154 % of control and 177 % of control and 180 % of control; the T/C (endpoint: mean survival time, dose: 25.0 mg/kg/injection, schedule: Q01DX001 (ip), vehicle: other) was 110 % of control and 112 % of control and 116 % of control; the T/C (endpoint: mean survival time, dose: 25.0 mg/kg/injection, schedule: Q01DX005 (ip), vehicle: other) is 171 % of control and 192 % of control and 202 % of control; the T/C (endpoint: mean survival time, dose: 30.0 mg/kg/injection, schedule: Q01DX005 (ip), vehicle: other) is 169 % of control and 204 % of control and 242 % of control; the T/C (endpoint: mean survival time, dose: 35.0 mg/kg/injection, schedule: Q01DX005 (ip), vehicle: other) is 201 % of control and 211 % of control and 214 % of control. Moreover, the T/C reads like this: (endpoint: mean survival time, dose: 100.0 mg/kg/injection, schedule: Q01DX001 (ip), vehicle: other) 166 % of control; (endpoint: mean survival time, dose: 150.0 mg/kg/injection, schedule: Q01DX001 (ip), vehicle: other) 173 % of control and 191 % of control and 213 % of control; (endpoint: mean survival time, dose: 200.0 mg/kg/injection, schedule: Q01DX001 (ip), vehicle: other) 170 % of control and 216 % of control and 242 % of control; (endpoint: mean survival time, dose: 250.0 mg/kg/injection, schedule: Q01DX001 (ip), vehicle: other) 161 % of control and 195 % of control and 222 % of control; (endpoint: median survival time, dose: 25.0 mg/kg/injection, schedule: Q01DX009 (ip), vehicle: saline with Tween-80) 295 % of control; (endpoint: median survival time, dose: 50.0 mg/kg/injection, schedule: Q01DX009 (ip), vehicle: saline with Tween-80) 106 % of control.

Consider `CC(=O)OCC1OC(n2cnc3c(=S)nc(N)[nH]c32)C(OC(C)=O)C1OC(C)=O` (centres undefined), for which, under “endpoint: mean survival time, dose: 37.5 mg/kg/injection, schedule: Q01DX Z (ip), vehicle: other”, the T/C was 122 % of control.

For the compound `C1CN1c1nc(N2CC2)nc(N2CC2)n1`, the T/C by setting is: (endpoint: mean survival time, dose: 0.15 mg/kg/injection, schedule: Q01DX Z (ip), vehicle: saline) 113 % of control; (endpoint: mean survival time, dose: 0.25 mg/kg/injection, schedule: Q01DX Z (ip), vehicle: saline) 119 % of control; (endpoint: mean survival time, dose: 0.5 mg/kg/injection, schedule: Q01DX Z (ip), vehicle: saline) 160 % of control; (endpoint: mean survival time, dose: 0.75 mg/kg/injection, schedule: Q01DX Z (ip), vehicle: saline) 156 % of control; (endpoint: mean survival time, dose: 1.0 mg/kg/injection, schedule: Q01DX Z (ip), vehicle: saline) 124 % of control; (endpoint: mean survival time, dose: 1.5 mg/kg/injection, schedule: Q01DX Z (ip), vehicle: saline) 97 % of control. In addition, the T/C runs as follows: (endpoint: mean survival time, dose: 2.1 mg/kg/injection, schedule: Q01DX001 (ip), vehicle: saline) 153 % of control; (endpoint: mean survival time, dose: 3.2 mg/kg/injection, schedule: Q01DX001 (ip), vehicle: saline) 182 % of control.

Consider `CC1CC(NC(=O)N(CCCl)N=O)CC(C)(C)C1` (centres undefined), for which the T/C by setting is: (endpoint: mean survival time, dose: 375.0 mg/kg/injection, schedule: Q01DX001 (ip), vehicle: other) 103 % of control; (endpoint: mean survival time, dose: 500.0 mg/kg/injection, schedule: Q01DX001 (ip), vehicle: other) 124 % of control; (endpoint: mean survival time, dose: 750.0 mg/kg/injection, schedule: Q01DX001 (ip), vehicle: other) 116 % of control.

Turning to `O=C(Nc1ccc(C2=NCCN2)cc1)c1ccc(C(=O)Nc2ccc(C3=NCCN3)cc2)c(Cl)c1`, the T/C reads like this: (endpoint: mean survival time, dose: 12.0 mg/kg/injection, schedule: Q01DX015 (ip), vehicle: carboxymethylcellulose (CMC)) 112 % of control; (endpoint: mean survival time, dose: 12.5 mg/kg/injection, schedule: Q01DX Z (ip), vehicle: carboxymethylcellulose (CMC)) 114 % of control; (endpoint: mean survival time, dose: 18.0 mg/kg/injection, schedule: Q01DX015 (ip), vehicle: carboxymethylcellulose (CMC)) 120 % of control; (endpoint: mean survival time, dose: 25.0 mg/kg/injection, schedule: Q01DX Z (ip), vehicle: carboxymethylcellulose (CMC)) 108 % of control; (endpoint: mean survival time, dose: 27.0 mg/kg/injection, schedule: Q01DX015 (ip), vehicle: carboxymethylcellulose (CMC)) 118 % of control; (endpoint: mean survival time, dose: 37.5 mg/kg/injection, schedule: Q01DX Z (ip), vehicle: carboxymethylcellulose (CMC)) 102 % of control. The T/C (endpoint: mean survival time, dose: 48.0 mg/kg/injection, schedule: Q01DX001 (ip), vehicle: carboxymethylcellulose (CMC)) was 98 % of control; the T/C (endpoint: mean survival time, dose: 48.4 mg/kg/injection, schedule: Q01DX001 (ip), vehicle: carboxymethylcellulose (CMC)) is 102 % of control; the T/C (endpoint: mean survival time, dose: 50.0 mg/kg/injection, schedule: Q01DX Z (ip), vehicle: carboxymethylcellulose (CMC)) was 96 % of control; the T/C (endpoint: mean survival time, dose: 74.0 mg/kg/injection, schedule: Q01DX001 (ip), vehicle: carboxymethylcellulose (CMC)) is 107 % of control and 100 % of control.

For `CN1CCN(CCCN2c3ccccc3Sc3ccc(C(F)(F)F)cc32)CC1`, the T/C (endpoint: mean survival time, dose: 44.0 mg/kg/injection, schedule: Q04DX003 (ip), vehicle: water) is 108 % of control.

Consider `O=NN(CCCl)C(=O)NC1Cc2ccccc2C1`, for which the T/C is, setting by setting: (endpoint: mean survival time, dose: 55.0 mg/kg/injection, schedule: Q01DX001 (ip), vehicle: other) 116 % of control; (endpoint: mean survival time, dose: 84.0 mg/kg/injection, schedule: Q01DX001 (ip), vehicle: other) 123 % of control; (endpoint: mean survival time, dose: 188.0 mg/kg/injection, schedule: Q01DX001 (ip), vehicle: other) 94 % of control.

`O=NN(CCCl)C(=O)CCCCC(=O)N(CCCl)N=O`: the T/C is 95 % of control (endpoint: mean survival time, dose: 44.0 mg/kg/injection, schedule: Q01DX001 (ip), vehicle: carboxymethylcellulose (CMC)); 96 % of control (endpoint: mean survival time, dose: 67.0 mg/kg/injection, schedule: Q01DX001 (ip), vehicle: carboxymethylcellulose (CMC)); 94 % of control (endpoint: mean survival time, dose: 100.0 mg/kg/injection, schedule: Q01DX001 (ip), vehicle: carboxymethylcellulose (CMC)).

Regarding `CC[n+]1c(-c2ccccc2)c2cc(N)ccc2c2ccc(N)cc21`, the T/C runs as follows: (endpoint: mean survival time, dose: 1.25 mg/kg/injection, schedule: Q01DX Z (ip), vehicle: saline) 104 % of control; under setting [1], 100 % of control; (endpoint: mean survival time, dose: 5.0 mg/kg/injection, schedule: Q01DX Z (ip), vehicle: saline) 101 % of control; (endpoint: mean survival time, dose: 7.5 mg/kg/injection, schedule: Q01DX Z (ip), vehicle: saline) 100 % of control; (endpoint: mean survival time, dose: 15.0 mg/kg/injection, schedule: Q01DX Z (ip), vehicle: saline) 86 % of control.
